In US5852028A, “Pyrimidine carboxylates and related compounds and methods for treating inflammatory conditions” (Signal Pharmaceuticals, Inc., priority 1995, dated 1998):

What was measured:
[1] = test system: NFκB/AP-1; assay: NFκB and AP-1 luciferase reporter gene assays in PMA/PHA-stimulated Jurkat T-cells; type: cell-based; conditions: Homo sapiens, stable Jurkat T-cells, PMA/PHA stimulation, 5 h
Description: Stable human Jurkat T-cells containing an NFκB binding site (from the MHC promoter) fused to a minimal SV-40 promoter driving luciferase expression were used in this experiment. Cells were split to 3×10^5 cells/mL every 2-3 days (cell concentration should not exceed 1×10^6 cells/mL to keep the cells proliferating in log phase). These cells were counted, resuspended in fresh medium containing 10% Serum-Plus at a density of 1×10^6 cells/mL and plated in 96 well round bottom plates (200 μ.LAMBDA. per well) 18 hours prior to starting the experiment.
Compounds of this invention, dissolved in dimethyl sulfoxide (3.3, 0.33 and 0.03 μg/mL), were then added to the 96 well plates containing the cells and the plates were incubated for 0.5 h at 37° C. Then 50 ng/mL of phorbol 12-myristate-13-acetate (PMA) and 1 μg/mL of phytohemagglutinin (PHA) were added to each well and the cells were incubated for an additional 5 h at 37° C. The plates were centrifuged at 2200 RPM for 3 minutes at room temperature and then the medium was removed. To each well was added 60 μL of cell lysis buffer and the plates were left at room temperature for 0.25 h. Then 40 μL of each cell extract was transferred to a black 96 well plate and 50 μL of luciferase substrate buffer was added. Luminescence was immediately measured using a Packard TopCount.
For AP-1, the assay was run as described above for NFκB except stable Jurkat T-cells were used that contained a the -73 collagenase promoter driving luciferase expression. In addition, the concentration of PMA used was 5 ng/mL.

[2] = test system: C3H mice; conditions: Morris et al., 1990; cited from earlier work
[3] = test system: mice; conditions: Morris et al., 1990; cited from earlier work

## CCOC(=O)c1cnc(N(C)N2C(=O)C=C(C)C2=O)nc1C(F)(F)F [Example 42, Ethyl 2-[N-(1'-aminocitraconamide)-N-methyl]-4-trifluoromethylpyrimidine-5-carboxylate]
[1]
  IC50: 0.3 µM

## CCOC(=O)c1cnc(NN2C(=O)C=C(C)C2=O)nc1C [Example 46, Ethyl 2-[N-(1'-aminocitraconamido)]-4-methylpyrimidine-5-carboxylate]
[1]
  IC50: 4 µM

## CCOC(=O)c1cnc(NN2C(=O)C=C(C)C2=O)nc1C(F)(F)C(F)(F)F [Example 48, Ethyl 2-[N-(1'-aminocitraconamido)]-4-pentafluoroethylpyrimidine-5-carboxylate]
[1]
  IC50: 0.09 µM

## CCOC(=O)c1cnc(NN2C(=O)C=C(c3ccccc3)C2=O)nc1C(F)(F)F [Example 40, Ethyl 2-[N-(1'-amino-3'-phenylmaleimide)]-4-trifluoromethylpyrimidine-5-carboxylate]
[1]
  IC50: 3 µM

## CCOC(=O)c1cnc(NN2C(=O)C=C(C)C2=O)nc1C(F)(F)F [Example 20, Ethyl 2-[N-(1'-aminocitraconamide)]-4-trifluoromethylpyrimidine-5-carboxylate]
[1]
  IC50: 0.7 µM

## CCOC(=O)c1cnc(NN2C(=O)C=C(C)C2=O)nc1C(=O)OCC [Example 64, Diethyl 2-[N-(1'-aminocitraconamido)]-pyrimidine-4,5-dicarboxylate]
[1]
  IC50: 1 µM

## CC(=O)c1cnc(NN2C(=O)C=C(C)C2=O)nc1C(F)(F)F [Example 23, 5-acetyl-2-[N-(1'-aminocitraconamide)]-4-trifluoromethylpyrimidine]
[1]
  IC50: 5 to 10 µM

## CCOC(=O)c1cnc(NN2C(=O)C=C(C)C2=O)nc1CC [Example 36, Ethyl 2-[N-(1'-aminocitraconamide)]-4-ethylpyrimidine-5-carboxylate]
[1]
  IC50: 0.15 µM

## O=P1(N(CCCl)CCCl)NCCCO1 (centres unmarked) [cyclophosphamide]
[2]
  activity in graft vs. host model (PLN assay): active
[3]
  activity in contact sensitivity model (delayed-type hypersensitivity to oxazolone): active

## CCOC(=O)c1cnc(C(F)(F)F)nc1NN1C(=O)C=C(C)C1=O [Example 21, Ethyl 4-[N-(1'-aminocitraconamide)]-2-trifluoromethylpyrimidine-5-carboxylate]
[1]
  IC50: 0.5 µM

## CCOC(=O)c1cnc(NN2C(=O)C=C(C)C2=O)nc1-c1cccs1 [Example 38, Ethyl 2-[N-(1'-aminocitraconamide)]-4-(2"-thiophenyl)pyrimidine-5-carboxylate]
[1]
  IC50: 0.04 µM

## CCOC(=O)c1cnc(NN2C(=O)C=C(C)C2=O)nc1-c1ccccc1 [Example 50, Ethyl 2-[N-(1'-aminocitraconamido)]-4-phenylpyrimidine-5-carboxylate]
[1]
  IC50: 1 µM

## CCOC(=O)c1cnc(C(F)(F)F)nc1NN1C(=O)C(C)=C(C)C1=O [Example 44, Ethyl 4-[N-(1'-amino-3',4'-dimethylmaleimido)]-2-trifluoromethylpyrimidine-5-carboxylate]
[1]
  IC50: 10 to 30 µM

## CCOC(=O)c1cnc(NN2C(=O)C(C)=C(C)C2=O)nc1C(F)(F)F [Example 41, Ethyl 2-[N-(1'-amino-3',4'-dimethylmaleimide)]-4-trifluoromethylpyrimidine-5-carboxylate]
[1]
  IC50: 5 µM

## CCOC(=O)c1cnc(NN2C(=O)C=C(C)C2=O)nc1Cc1ccccc1 [Example 52, Ethyl 2-[N-(1'-aminocitraconamido)]-4-benzylpyrimidine-5-carboxylate]
[1]
  IC50: 2 µM

## CCCc1nc(NN2C(=O)C=C(C)C2=O)ncc1C(=O)OCC [Example 37, Ethyl 2-[N-(1'-aminocitraconamide)]-4-propylpyrimidine-5-carboxylate]
[1]
  IC50: 0.15 µM
